Results as given in patent publication US4310682A, “Halo-salicylanilide” (priority 1979, dated 1982).

How the values were obtained:
Assay type in all cases: cell-based
[1] = test system: Staphylococcus aureus FDA-209-P; assay: MIC, agar medium containing the compound; settings: bacterium No. 3, 37° C., 4 hours
Description: (§1) In order to test antifungal and bactericidal activity of halo-salicylanilide obtained in above mentioned Examples, following bacteria and fungi are employed.
No. 3 Staphylococcus aureus FDA-209-P
(§2) Bacteria No. 1 to No. 4 are respectively cultured in Hart Infusion bouillon medium at 37° C. for 20 hours and resulting medium liquids are employed for said test. Fungi No. 5 to No. 7 are respectively cultured in Sabouraud agar medium and 10^6 cell/ml of cell dispersing liquids obtained from said medium are employed for said test.

[2] = test system: bacteria No. 1 to No. 4 and fungi No. 5 to No. 7; assay: Antifungal and bactericidal activity test, overall assessment of Table 8; settings: referring to Table 8
Description: as §1, §2
Referring now to Table 8, in said Examples the halo-salicylanilides provided have respectively remarkable higher antifungal and bactericidal activity than that of the contrasts proposed and said halo-salicylanilidesare especially effective on bacteria No. 3 and No. 4, and fungi No. 5, No. 6 and No. 7. This testifies that alkyl group of 2'-position of the halo-salicylanilides is significant for the activities of the compound. […] Especially the halo-salicylanilides having fluorine in 5-position are very useful for agricultural medicines.

[3] = test system: Bacillus subtilis PCI-219; assay: MIC, agar medium containing the compound; settings: bacterium No. 4, 37° C., 4 hours
Description: as §1
No. 4 Bacillus subtilis PCI-219
as §2

[4] = test system: Candida albicans ATCC 10259; assay: Multiplying state after removal to compound-free medium (scanning electron microscope)
[5] = test system: Trichophyton rubrum IFO 9185; assay: MIC, Sabouraud agar medium containing the compound; settings: fungus No. 7, 20° C., 14 days
Description: as §1
No. 7 Trichophyton rubrum IFO 9185
as §2

[6] = test system: Escherichia coli NIHJ JC-2; assay: MIC, agar medium containing the compound; settings: bacterium No. 1, 37° C., 4 hours
Description: as §1
No. 1 Escherichia coli NIHJ JC-2
as §2

[7] = test system: Aspergillus flavus IFO 8558; assay: MIC, Sabouraud agar medium containing the compound; settings: fungus No. 6, 20° C., 14 days
Description: as §1
No. 6 Aspergillus flavus IFO 8558
as §2

[8] = test system: Candida albicans ATCC 10259; assay: MIC, Sabouraud agar medium containing the compound; settings: fungus No. 5, 20° C., 14 days
Description: as §1
No. 5 Candida albicans ATCC 10259
as §2

With Cc1cc(Cl)ccc1NC(=O)c1cc(I)ccc1O [compound 3, 5-iodo-2'-methyl-4'-chloro salicylanilide] the “MIC (Minimum Inhibitory Concentration)” value [1] was 0.75, the “antifungal and bactericidal activity (assessment in words)” value [2] was “remarkable antifungal and bactericidal activity” and the “MIC (Minimum Inhibitory Concentration)” value [3] was 1.5. For the same molecule, the “multiplying state of the fungi after removal to culture medium without the compound” value ([4]; first cultured in medium containing the compound, then removed, FIG. 1 and FIG. 2) was “does not start to multiply”, the “destruction of the cell membranes of the fungi” value ([4]; scanning electron microscope, FIG. 2) was “destruction of the cell membranes of the fungi is observed” and the “MIC (Minimum Inhibitory Concentration)” value [5] was 6.3. For the same molecule, the “MIC (Minimum Inhibitory Concentration)” value [6] was over 100, the “MIC (Minimum Inhibitory Concentration)” value [7] was 6.3 and the “MIC (Minimum Inhibitory Concentration)” value [8] was 6.3.
